Results on 15 compounds are retold here after paper PMC11554605, “Pharmacological differences between human and mouse P2X4 receptor explored using old and new tools” (Purinergic Signalling, 2024).

The term EC50 denotes the concentration needed to bring the measured effect to its halfway point. The EC80 is the point of the concentration-response curve where the effect stands at 80%. Higher therefore signals a need for much substance. By IC50 is commonly meant the concentration that gives 50% inhibition.

Entries after “also recorded” stand apart in the source; their conditions may differ. Like-named read-outs stand apart in the source and are kept apart here.

The target in assay [1] is T1, human P2X4 (Homo sapiens, UniProt Q99571).
T1 construct: expressed in transfected cells
T1 sequence (Q99571 1-388): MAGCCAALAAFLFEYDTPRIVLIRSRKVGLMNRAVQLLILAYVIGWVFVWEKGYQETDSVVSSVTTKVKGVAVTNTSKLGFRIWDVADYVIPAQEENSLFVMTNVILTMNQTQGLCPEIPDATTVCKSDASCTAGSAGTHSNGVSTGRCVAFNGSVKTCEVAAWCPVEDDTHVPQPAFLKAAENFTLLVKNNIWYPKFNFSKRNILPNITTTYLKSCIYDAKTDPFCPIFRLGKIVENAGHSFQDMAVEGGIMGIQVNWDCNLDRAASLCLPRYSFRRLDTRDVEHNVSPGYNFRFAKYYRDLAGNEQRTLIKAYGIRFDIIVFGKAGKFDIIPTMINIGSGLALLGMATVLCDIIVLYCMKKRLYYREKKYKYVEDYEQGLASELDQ
Description: Intracellular Ca2+ assay (Fura-2, FlexStation 3), agonist responses in 1321N1 cells stably expressing human P2X4. The format is cell-based. The note with it: for Emax: 1321-N1, read-out: Efficacy Human (maximal response to ligand as a percentage of maximal response to ATP).

For assay [2], the target named is T2, mouse P2X4 (Mus musculus, UniProt Q9JJX6).
T2 construct: expressed in transfected cells
T2 sequence (Q9JJX6 1-388): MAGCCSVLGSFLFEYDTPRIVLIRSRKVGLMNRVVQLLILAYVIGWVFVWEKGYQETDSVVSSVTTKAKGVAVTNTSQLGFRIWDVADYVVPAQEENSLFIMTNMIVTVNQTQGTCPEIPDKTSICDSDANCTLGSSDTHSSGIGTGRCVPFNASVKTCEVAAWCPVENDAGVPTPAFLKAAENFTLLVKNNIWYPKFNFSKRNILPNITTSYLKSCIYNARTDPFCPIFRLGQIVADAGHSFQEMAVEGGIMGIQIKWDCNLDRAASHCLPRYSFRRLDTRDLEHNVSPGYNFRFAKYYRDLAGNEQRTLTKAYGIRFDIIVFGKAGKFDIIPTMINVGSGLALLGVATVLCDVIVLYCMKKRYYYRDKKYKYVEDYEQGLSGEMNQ
Description: Intracellular Ca2+ assay (Fura-2, FlexStation 3), agonist responses in 1321N1 cells stably expressing mouse P2X4. It counts as cell-based. The conditions noted are these: for Emax: 1321-N1, read-out: Efficacy Mouse (maximal response to ligand as a percentage of maximal response to ATP); for EC50: 1321N1 cells expressing mouse P2X4, peak Ca2+ response.

Assay [3] addresses T1, human P2X4. Description: Intracellular Ca2+ assay, antagonists against Ca2+ responses evoked by EC80 ATP (1.5 µM) in 1321N1 cells expressing human P2X4. It counts as cell-based.
The subject of another assay is rat P2X4. The note with it: cited from earlier work.
Assay [4] concerns the target T2, mouse P2X4. Description: Intracellular Ca2+ assay, antagonists against Ca2+ responses evoked by EC80 ATP (1.5 µM) in 1321N1 cells expressing mouse P2X4. It counts as cell-based.
In assay [5] the target is T1, human P2X4. The conditions noted are these: cited from earlier work.
The target of assay [6] is T2, mouse P2X4. The note with it: cited from earlier work.
The mark [7] stands for this setting: 1321N1 cells expressing human P2X4, peak Ca2+ response, read-out: EC50 Human.
Setting [8] is: 30 µM antagonist, vs 1.5 µM ATP.
Where [9] appears, read: 10 µM antagonist, vs 1.5 µM ATP.
Where [10] appears, read: 100 µM antagonist, vs 1.5 µM ATP.
Where [11] appears, read: 20 µM antagonist, vs 1.5 µM ATP.

As to `CSc1nc(N)c2ncn([C@@H]3O[C@H](COP(=O)(O)OP(=O)(O)OP(=O)(O)O)[C@@H](O)[C@H]3O)c2n1` [2-MeSATP, 2-(Methylthio)adenosine 5′-triphosphate], the results for the Emax on human P2X4 [1] and at mouse P2X4 [2] were 57 ± 6% and 65 ± 2%, respectively. Further, the EC50 was found to be 2 ± 0.2 µM on human P2X4 [1] (setting [7]) and 8 ± 2 µM at mouse P2X4 [2]. Also, at human P2X4 [1] (human P2X4), the “Agonist action at human P2X4 (in words)” value is listed as “partial agonist”. Moreover, the “Agonist action at mouse P2X4 (in words)” value on mouse P2X4 [2] (mouse P2X4) was “partial agonist”.

Consider `O=C1CN=C(c2cccc(Br)c2)c2oc3ccccc3c2N1` [5-BDBD, 5-(3-Bromophenyl)-1,3-dihydro-2H-benzofuro[3,2-e]-1,4-diazepin-2-one], for which the “% inhibition Human” value on human P2X4 [3] (setting [8]) is recorded as 97 ± 3% (30 µM). For the same compound, at human P2X4 [3] (vs 1.5 µM ATP), the “Antagonist action at human P2X4 (in words)” value is on record as “completely inhibit”. The “Antagonist action at rat P2X4 (literature)” value in the assay with rat P2X4 (ref 37) is “sensitivity”. Besides, the “% inhibition Mouse” value at mouse P2X4 [4] (setting [8]) is on record as 10 ± 8% (30 µM). Besides, the “Antagonist action at mouse P2X4 (in words)” value is reported as “insensitive” on mouse P2X4 [4] (up to 100 µM) and “not antagonised; also recorded: not an antagonist” at mouse P2X4 [4] (vs 1.5 µM ATP).

Turning to `Nc1ncnc2c1ncn2[C@@H]1O[C@H](COP(=O)(O)OP(=O)(O)OP(=O)(O)O)[C@@H](O)[C@H]1O` [ATP, adenosine 5′-triphosphate], the EC50 on human P2X4 [1] (setting [7]) was 0.747 ± 0.18 µM; on mouse P2X4 [2], 0.565 ± 0.085 µM. The compound further registered an EC80 at human P2X4 [1] (human P2X4) of 1.5 ± 0.3 µM.

`Nc1ncnc2c1ncn2[C@@H]1O[C@H](CO[P@](=O)(O)O[P@](=O)(O)O[P@@](=O)(O)S)[C@@H](O)[C@H]1O` [ATPγS, Adenosine-5′-O-(3-thio-triphosphate)]: the “Agonist action at human P2X4 (literature)” value at human P2X4 [5] (ref 33) is recorded as “partial agonism”. Further, the values for the Emax on human P2X4 [1] and on mouse P2X4 [2] were 9 ± 3% and 45 ± 4%, respectively. Further, the results for the “Agonist action at human P2X4 (in words)” value at human P2X4 [1] (human P2X4) and at human P2X4 [1] (up to 300 µM) were “did not activate; also recorded: not activated” and “does not activate”, respectively. Further, the 50% effective concentration (EC50) on mouse P2X4 [2] came to 18 ± 1 µM. In addition, on mouse P2X4 [2] (mouse P2X4), the “Agonist action at mouse P2X4 (in words)” value was “partial agonist”.

For `Nc1ncnc2c1ncn2[C@@H]1O[C@H](COP(=O)(O)OP(=O)(O)OP(=O)(O)OP(=O)(O)OC[C@H]2O[C@@H](n3cnc4c(N)ncnc43)[C@H](O)[C@@H]2O)[C@@H](O)[C@H]1O` [Ap4A, Diadenosine tetraphosphate], the “Agonist action at human P2X4 (literature)” value at human P2X4 [5] (ref 35, ref 17) was “activation of human P2X4 by Ap4A at nanomolar concentrations”. In addition, the “Agonist action at human P2X4 (in words)” value on human P2X4 [1] (tested up to 1 mM) was “did not activate”. Besides, the “Agonist action at mouse P2X4 (in words)” value on mouse P2X4 [2] (mouse P2X4) was “not an agonist”; at mouse P2X4 [2] (tested up to 1 mM), “did not activate”. Also, the “Agonist action at mouse P2X4 (literature)” value was “activates mouse P2X4 at low micromolar concentrations” at mouse P2X4 [6] (ref 17) and “insensitive” at mouse P2X4 [6] (ref 35). The “Agonist potency at rat P2X4 (literature)” value in the assay with rat P2X4 (ref 36) is reported as “equipotent with ATP”.

Consider `NS(=O)(=O)c1cc(NC(=O)Cc2ccccc2)ccc1Oc1cccc(Cl)c1` [BAY-1797, N-[4-(3-Chlorophenoxy)-3-sulfamoylphenyl]-2-phenylacetamide], for which the “% inhibition Mouse” value at mouse P2X4 [4] (setting [9]) is given as 99 ± 2% (10 µM).

Consider `CC(C)c1cc(Br)c(NC(=O)Nc2cccnc2)c(Br)c1` [BX-430, 1-(2,6-Dibromo-4-isopropyl-phenyl)-3-(3-pyridyl)urea], for which the “% inhibition Human” value on human P2X4 [3] (setting [9]) was 96 ± 3% (10 µM). At human P2X4 [3] (vs 1.5 µM ATP), the “Antagonist action at human P2X4 (in words)” value is recorded as “abolished receptor activity”. Moreover, the “% inhibition Mouse” value on mouse P2X4 [4] (setting [9]) is given as 0 ± 3% (10 µM). Further, the “Antagonist action at mouse P2X4 (in words)” value on mouse P2X4 [4] (up to 100 µM) was “insensitive”; on mouse P2X4 [4] (vs 1.5 µM ATP), “not antagonised”.

Regarding `Nc1ncnc2c1ncn2C1OC(COP(=O)(O)OP(=O)(O)OP(=O)(O)O)C(OC(=O)c2ccc(C(=O)c3ccccc3)cc2)C1O` (stereo not drawn) [BzATP, 2′(3′)-O-(4-Benzoylbenzoyl)adenosine 5′-triphosphate], the Emax worked out at 35 ± 4% at human P2X4 [1] and 27 ± 2% on mouse P2X4 [2]. In addition, the EC50 is 11 ± 2 µM on human P2X4 [1] (setting [7]) and 24 ± 16 µM on mouse P2X4 [2]. In addition, the “Agonist action at human P2X4 (in words)” value at human P2X4 [1] (human P2X4) is given as “partial agonist”. For the same compound, on mouse P2X4 [2] (mouse P2X4), the “Agonist action at mouse P2X4 (in words)” value was “partial agonist”.

Turning to `Nc1ccn([C@@H]2O[C@H](COP(=O)(O)OP(=O)(O)OP(=O)(O)O)[C@@H](O)[C@H]2O)c(=O)n1` [CTP, Cytidine 5′-triphosphate], the Emax on human P2X4 [1] stood at 67 ± 6%; on mouse P2X4 [2], 89 ± 5%. The “Agonist action at human P2X4 (in words)” value on human P2X4 [1] (human P2X4) is on record as “partial agonist”. For the same compound, the “Agonist action at mouse P2X4 (in words)” value on mouse P2X4 [2] (mouse P2X4) was “full agonist”.

With `Cc1nc(/N=N/c2ccc(S(=O)(=O)O)cc2S(=O)(=O)O)c(COP(=O)(O)O)c(C=O)c1O` [PPADS, Pyridoxalphosphate-6-azophenyl-2′,4′-disulfonic acid], the “Antagonist action at human P2X4 (literature)” value on human P2X4 [5] (ref 16-18) is listed as “inhibit the human P2X4 receptor fully”. At human P2X4 [3] (setting [10]), the “% inhibition Human” value is 98 ± 3% (100 µM). Moreover, the “% inhibition Mouse” value at mouse P2X4 [4] (setting [10]) is reported as 87 ± 16%(100 µM).

Take `Cc1ccc(S(=O)(=O)N2c3ccccc3Oc3ccccc32)cc1` [PSB-12062, N-(p-methylphenylsulfonyl)phenoxazine]: the “% inhibition Human” value at human P2X4 [3] (setting [11]) is 99 ± 4% (20 µM). Also, the “Antagonist action at human P2X4 (in words)” value at human P2X4 [3] (vs 1.5 µM ATP) is listed as “abolished activity”. Moreover, on mouse P2X4 [4] (setting [11]), the “% inhibition Mouse” value is 59 ± 7% (20 µM). For the same compound, the IC50 on mouse P2X4 [4] (read-out: IC50 Mouse) turned out to be 3 ± 2 µM.

As for `Nc1ncnc2c1ncn2[C@@H]1O[C@H](COP(=O)(O)OP(=O)(O)OP(=O)(O)O)[C@H]2OC3(O[C@H]21)C([N+](=O)[O-])=CC(=[N+]([O-])[O-])C=C3[N+](=O)[O-]` (stereo partly drawn) [TNP-ATP, 2′,3′-O-(2,4,6-Trinitrophenyl)-ATP], the “Antagonist action at human P2X4 (in words)” value on human P2X4 [3] was “completely inhibited”. The “% inhibition Human” value at human P2X4 [3] (setting [10]) is given as 94 ± 1% (100 µM). The compound further displayed a half-inhibitory concentration (IC50) against mouse P2X4 [4] of 93 ± 4 µM. Further, the “% inhibition Mouse” value at mouse P2X4 [4] (setting [10]) is recorded as 43 ± 7% (100 µM).

Consider `Cc1ccc(C(=O)Nc2ccc(S(=O)(=O)O)c3cc(S(=O)(=O)O)cc(S(=O)(=O)O)c23)cc1NC(=O)c1cccc(NC(=O)Nc2cccc(C(=O)Nc3cc(C(=O)Nc4ccc(S(=O)(=O)O)c5cc(S(=O)(=O)O)cc(S(=O)(=O)O)c45)ccc3C)c2)c1` [suramin, 8,8′-{Carbonylbis[imino-3,1-phenylenecarbonylimino(4-methyl-3,1-phenylene)carbonylimino]}di(1,3,5-naphthalenetrisulfonic acid)], for which, at human P2X4 [3] (up to 100 µM), the “Antagonist action at human P2X4 (in words)” value is “completely insensitive”. Also, at mouse P2X4 [4] (up to 100 µM), the “Antagonist action at mouse P2X4 (in words)” value is given as “completely insensitive”.

`Nc1ncnc2c1ncn2C1OC(COP(=O)(O)CP(=O)(O)OP(=O)(O)O)C(O)C1O` (stereo not drawn) [α,β-meATP, α,β-Methyleneadenosine 5′-triphosphate]: at human P2X4 [1], the 50% effective concentration (EC50) came out at 7 ± 0.7 µM and the Emax is 15 ± 2%. The “Agonist action at human P2X4 (in words)” value at human P2X4 [1] (human P2X4) is reported as “can be activated; also recorded: weak partial agonist”. Also, the Emax on mouse P2X4 [2] was determined as 5 ± 2%. The “Agonist action at mouse P2X4 (in words)” value at mouse P2X4 [2] (mouse P2X4) is on record as “no significant effect”.

As to `C#CCNP(=O)(O)OP(=O)(O)OP(=O)(O)OCC1OC(n2cnc3c(N)ncnc32)C(O)C1O` (stereo not drawn) [γ-[(Propargyl)-imido]-ATP, Adenosine-5′-[γ-(propargyl)-imido]triphosphate], the Emax was determined as 85 ± 5% on human P2X4 [1] and 90 ± 11% at mouse P2X4 [2]. Moreover, the EC50 at human P2X4 [1] (setting [7]) and on mouse P2X4 [2] was 20 ± 2 µM each time. In addition, the “Agonist action at human P2X4 (in words)” value at human P2X4 [1] (human P2X4) is “partial agonism”. In addition, the “Agonist action at mouse P2X4 (in words)” value at mouse P2X4 [2] (mouse P2X4) was “full agonist”.
